In US12371428B2 (Exelixis, Inc., priority 2019, dated 2025):
Counter-ions that a name gives are not always drawn.

Key:
[1] = target: Human MER (residues 528-999) (Homo sapiens (Human), UniProt Q12866); assay: Human Mer kinase assay, HTRF KinEase (Example C-2); format: biochemical; details: protocol of Example C-2 (other compounds)
Summary of the method: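 HTRF KinEase TK assay with MER 528-999 (1 ng/well) in enzymatic buffer plus 5 mM MgCl2 and 1 mM DTT, biotinylated peptide substrate and ATP at Km (40 μM), 3% DMSO final, 60 min at room temperature. Stopped with EDTA detection mix (SA-XL665, TK antibody-Eu3+), read at 665/620 nm after 60 min; IC50 from 10-point 4-parameter fit, normalized to DMSO and 1 μM reference.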

[2] = target: Mer (phospho-Mer, MERTK-transfected 293A cells) (Homo sapiens (Human), UniProt Q12866); assay: Mer autophosphorylation ELISA in transient transfected 293A cells (Example H); format: cell-based; details: cellular activity; Mer autophosphorylation ELISA in transient transfected 293A cells
Sequence of Mer (phospho-Mer, MERTK-transfected 293A cells) (Q12866 21-999): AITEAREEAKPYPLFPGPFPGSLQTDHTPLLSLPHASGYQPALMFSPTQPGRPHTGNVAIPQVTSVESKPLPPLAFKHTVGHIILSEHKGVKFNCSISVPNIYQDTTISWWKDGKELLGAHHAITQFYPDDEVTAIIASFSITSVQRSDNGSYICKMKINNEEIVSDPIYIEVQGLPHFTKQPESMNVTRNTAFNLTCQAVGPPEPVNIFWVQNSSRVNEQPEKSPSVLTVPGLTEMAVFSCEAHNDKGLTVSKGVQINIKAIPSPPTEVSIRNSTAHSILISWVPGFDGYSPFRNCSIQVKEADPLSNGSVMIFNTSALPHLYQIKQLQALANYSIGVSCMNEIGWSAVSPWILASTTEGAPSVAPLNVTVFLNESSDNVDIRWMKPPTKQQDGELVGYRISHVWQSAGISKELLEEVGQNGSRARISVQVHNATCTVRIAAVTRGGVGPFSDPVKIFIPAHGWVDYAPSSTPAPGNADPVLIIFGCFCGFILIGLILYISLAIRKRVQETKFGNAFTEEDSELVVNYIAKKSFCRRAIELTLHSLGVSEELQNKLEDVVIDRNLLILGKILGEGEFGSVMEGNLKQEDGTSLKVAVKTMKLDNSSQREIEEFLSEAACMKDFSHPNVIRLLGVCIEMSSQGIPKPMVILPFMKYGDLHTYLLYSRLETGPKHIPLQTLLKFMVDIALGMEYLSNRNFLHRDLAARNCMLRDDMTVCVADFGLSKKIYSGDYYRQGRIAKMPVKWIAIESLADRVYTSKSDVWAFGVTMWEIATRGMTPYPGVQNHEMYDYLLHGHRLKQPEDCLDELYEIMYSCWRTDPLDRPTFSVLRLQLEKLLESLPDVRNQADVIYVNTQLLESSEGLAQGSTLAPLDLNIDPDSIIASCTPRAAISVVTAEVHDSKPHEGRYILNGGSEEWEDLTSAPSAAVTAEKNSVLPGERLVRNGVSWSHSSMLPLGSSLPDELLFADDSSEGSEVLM
Summary of the method: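 MERTK-transfected 293A; 8-pt dose, 1 h, serum-free, 0.3% DMSO. Cold lysis with orthovanadate and protease/phosphatase inhibitors. Phospho-Mer by DuoSet IC ELISA vs phospho-Mer standard. IC50: 4-PL fit; DMSO = 100%, reference inhibitor = 0%.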

[3] = target: Human KDR (residues 790-1356) (Homo sapiens (Human), UniProt P35968); assay: Human KDR kinase assay, HTRF KinEase (Example B-2); format: biochemical; details: protocol of Example B-2 (other compounds)
Sequence of Human KDR (residues 790-1356) (P35968 790-1356): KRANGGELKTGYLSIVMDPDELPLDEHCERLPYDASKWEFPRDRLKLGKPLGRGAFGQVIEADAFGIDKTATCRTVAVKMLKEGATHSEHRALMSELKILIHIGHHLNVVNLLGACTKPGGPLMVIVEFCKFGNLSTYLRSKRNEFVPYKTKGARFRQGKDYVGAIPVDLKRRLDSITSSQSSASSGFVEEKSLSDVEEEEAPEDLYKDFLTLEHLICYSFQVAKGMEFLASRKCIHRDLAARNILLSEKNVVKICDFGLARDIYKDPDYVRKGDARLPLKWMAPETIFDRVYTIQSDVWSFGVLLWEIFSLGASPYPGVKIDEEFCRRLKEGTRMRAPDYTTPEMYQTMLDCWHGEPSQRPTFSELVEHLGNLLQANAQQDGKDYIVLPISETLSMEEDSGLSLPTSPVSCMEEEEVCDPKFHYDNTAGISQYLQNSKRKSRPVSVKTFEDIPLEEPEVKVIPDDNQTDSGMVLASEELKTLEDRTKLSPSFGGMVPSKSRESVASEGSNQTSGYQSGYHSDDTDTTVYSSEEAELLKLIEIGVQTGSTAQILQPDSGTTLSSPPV
Summary of the method: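 Ten compound concentrations (3% DMSO final) were pre-plated, then KDR (790-1356) with biotinylated peptide in Mg/Mn/DTT buffer was added; ATP at Km (4.0 μM) started a 40 min room-temperature reaction. Detection used Eu-TK antibody and SA-XL665 in EDTA buffer; activity normalized to DMSO and reference inhibitor, IC50 by logistic fit.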

Sequence of Human MER (residues 528-999) (Q12866 528-999): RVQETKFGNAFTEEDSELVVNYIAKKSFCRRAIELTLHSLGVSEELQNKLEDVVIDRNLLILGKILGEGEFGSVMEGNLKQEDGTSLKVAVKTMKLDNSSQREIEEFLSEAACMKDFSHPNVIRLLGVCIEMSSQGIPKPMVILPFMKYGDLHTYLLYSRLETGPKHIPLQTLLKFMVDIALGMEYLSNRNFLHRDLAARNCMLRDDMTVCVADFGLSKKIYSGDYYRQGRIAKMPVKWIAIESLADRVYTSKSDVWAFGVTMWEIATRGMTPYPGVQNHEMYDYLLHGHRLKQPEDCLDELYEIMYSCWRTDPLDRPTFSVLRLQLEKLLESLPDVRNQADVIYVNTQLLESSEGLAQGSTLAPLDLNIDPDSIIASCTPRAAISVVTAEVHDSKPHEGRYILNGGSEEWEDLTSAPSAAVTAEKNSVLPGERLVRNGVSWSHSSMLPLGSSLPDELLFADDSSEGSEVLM

Structure (SMILES) | IC50 [1] | IC50 [2] | IC50 [3]
COc1cc2nccc(Oc3ccc(NC(=O)C4=C5CCCN5CC(c5ccc(F)cc5)C4=O)cc3F)c2nc1OC (racemic) [Compound 373, N-[4-[(6,7-dimethoxy-1,5-naphthyridin-4-yl)oxy]-3-fluorophenyl]-6-(4-fluorophenyl)-7-oxo-2,3,5,6-tetrahydro-1H-indolizine-8-carboxamide] | < 100 nM | < 100 nM | > 300 nM
COc1cc2nccc(Oc3ccc(NC(=O)C4=C5CCCN5CC(c5ccc(F)cc5)C4=O)cc3F)c2nc1OC (single isomer, unassigned; enantiomer 1) [Compound 374, N-[4-[(6,7-dimethoxy-1,5-naphthyridin-4-yl)oxy]-3-fluorophenyl]-6-(4-fluorophenyl)-7-oxo-2,3,5,6-tetrahydro-1H-indolizine-8-carboxamide, enantiomer 1] | < 100 nM | < 100 nM | > 300 nM
COc1cc2nccc(Oc3ccc(NC(=O)c4cn(C)cc(-c5ccc(Cl)cc5)c4=O)cc3F)c2nc1OC [Compound 38, 5-(4-Chlorophenyl)-N-[4-[(6,7-dimethoxy-1,5-naphthyridin-4-yl)oxy]-3-fluorophenyl]-1-methyl-4-oxopyridine-3-carboxamide hydrochloride] | < 100 nM | < 100 nM | 100 to 300 nM
COc1cc2nccc(Oc3ccc(NC(=O)c4cn(C)cc(-c5ccccc5)c4=O)cc3)c2nc1OC [Compound 39, N-[4-[(6,7-Dimethoxy-1,5-naphthyridin-4-yl)oxy]phenyl]-1-methyl-4-oxo-5-phenylpyridine-3-carboxamide hydrochloride] | < 100 nM | < 100 nM | < 100 nM
COc1cnc2c(Oc3ccc(NC(=O)c4cn(C)cc(-c5ccccc5)c4=O)cc3F)ccnc2c1 [Compound 40, N-[3-Fluoro-4-[(7-methoxy-1,5-naphthyridin-4-yl)oxy]phenyl]-1-methyl-4-oxo-5-phenylpyridine-3-carboxamide hydrochloride] | < 100 nM | < 100 nM | > 300 nM
COc1cnc2c(Oc3ccc(NC(=O)c4ncc(C)n(-c5ccc(F)cc5)c4=O)cc3)ccnc2c1 [Compound 263, 4-(4-Fluorophenyl)-N-[4-[(7-methoxy-1,5-naphthyridin-4-yl)oxy]phenyl]-5-methyl-3-oxopyrazine-2-carboxamide] | < 100 nM | < 100 nM | > 300 nM
COc1ccc2nccc(Oc3ccc(NC(=O)c4ncc(C)n(-c5ccc(F)cc5)c4=O)cc3F)c2n1 [Compound 264, N-[3-Fluoro-4-[(6-methoxy-1,5-naphthyridin-4-yl)oxy]phenyl]-4-(4-fluorophenyl)-5-methyl-3-oxopyrazine-2-carboxamide] | < 100 nM | < 100 nM | > 300 nM
COc1cnc2c(Oc3ccc(NC(=O)c4cnc(C)n(-c5ccc(F)cc5)c4=O)cc3F)ccnc2c1 [Compound 265, N-[3-Fluoro-4-[(7-methoxy-1,5-naphthyridin-4-yl)oxy]phenyl]-1-(4-fluorophenyl)-2-methyl-6-oxopyrimidine-5-carboxamide] | < 100 nM | < 100 nM | > 300 nM
COc1cnc2c(Oc3ccc(NC(=O)c4cnc(C)n(-c5ccc(F)cc5)c4=O)cc3)ccnc2c1 [Compound 266, 1-(4-Fluorophenyl)-N-[4-[(7-methoxy-1,5-naphthyridin-4-yl)oxy]phenyl]-2-methyl-6-oxopyrimidine-5-carboxamide] | < 100 nM | < 100 nM | > 300 nM
COc1cc2nccc(Oc3ccc(NC(=O)c4cn(C)cc(-c5c(C)cc(F)cc5C)c4=O)cc3F)c2nc1OC [Compound 268, N-[4-[(6,7-Dimethoxy-1,5-naphthyridin-4-yl)oxy]-3-fluorophenyl]-5-(4-fluoro-2,6-dimethylphenyl)-1-methyl-4-oxopyridine-3-carboxamide] | < 100 nM | < 100 nM | > 300 nM
COCc1c(-c2ccc(F)cc2)c(=O)c(C(=O)Nc2ccc(Oc3ccnc4cc(OC)c(OC)nc34)c(F)c2)cn1C [Compound 269, N-[4-[(6,7-Dimethoxy-1,5-naphthyridin-4-yl)oxy]-3-fluorophenyl]-5-(4-fluorophenyl)-6-(methoxymethyl)-1-methyl-4-oxopyridine-3-carboxamide] | < 100 nM | < 100 nM | > 300 nM
COCc1c(-c2ccc(F)cc2)c(=O)c(C(=O)Nc2ccc(Oc3ccnc4cc(OC)cnc34)c(F)c2)cn1C [Compound 270, N-[3-Fluoro-4-[(7-methoxy-1,5-naphthyridin-4-yl)oxy]phenyl]-5-(4-fluorophenyl)-6-(methoxymethyl)-1-methyl-4-oxopyridine-3-carboxamide] | < 100 nM | < 100 nM | > 300 nM
CCn1cc(C(=O)Nc2ccc(Oc3ccnc4cc(OC)c(OC)nc34)c(F)c2)c(=O)c(-c2ccc(F)cc2)c1CO [Compound 271, N-[4-[(6,7-Dimethoxy-1,5-naphthyridin-4-yl)oxy]-3-fluorophenyl]-1-ethyl-5-(4-fluorophenyl)-6-(hydroxymethyl)-4-oxopyridine-3-carboxamide] | < 100 nM | < 100 nM | < 100 nM
CCn1cc(C(=O)Nc2ccc(Oc3ccnc4cc(OC)c(OC)nc34)cc2)c(=O)c(-c2ccc(F)cc2)c1CO [Compound 272, N-[4-[(6,7-Dimethoxy-1,5-naphthyridin-4-yl)oxy]phenyl]-1-ethyl-5-(4-fluorophenyl)-6-(hydroxymethyl)-4-oxopyridine-3-carboxamide] | < 100 nM | < 100 nM | 100 to 300 nM
CCn1cc(C(=O)Nc2ccc(Oc3ccnc4cc(OC)cnc34)c(F)c2)c(=O)c(-c2ccc(F)cc2)c1CO [Compound 273, 1-Ethyl-N-[3-fluoro-4-[(7-methoxy-1,5-naphthyridin-4-yl)oxy]phenyl]-5-(4-fluorophenyl)-6-(hydroxymethyl)-4-oxopyridine-3-carboxamide] | < 100 nM | < 100 nM | > 300 nM
CCn1cc(C(=O)Nc2ccc(Oc3ccnc4cc(OC)cnc34)cc2)c(=O)c(-c2ccc(F)cc2)c1CO [Compound 274, 1-Ethyl-5-(4-fluorophenyl)-6-(hydroxymethyl)-N-[4-[(7-methoxy-1,5-naphthyridin-4-yl)oxy]phenyl]-4-oxopyridine-3-carboxamide] | < 100 nM | < 100 nM | > 300 nM
Cc1ccc(C(=O)Nc2ccc(Oc3ccnc4cc(OCc5ccccc5)cnc34)c(F)c2)c(=O)n1-c1ccc(F)cc1 [Compound 275, 1-(4-Fluorophenyl)-N-[3-fluoro-4-[(7-phenylmethoxy-1,5-naphthyridin-4-yl)oxy]phenyl]-6-methyl-2-oxopyridine-3-carboxamide] | < 100 nM | < 100 nM | 100 to 300 nM
COc1ccc2nccc(Oc3ccc(NC(=O)c4ccc(C)n(-c5ccc(F)cc5C)c4=O)cc3)c2n1 [Compound 276, 1-(4-Fluoro-2-methylphenyl)-N-[4-[(6-methoxy-1,5-naphthyridin-4-yl)oxy]phenyl]-6-methyl-2-oxopyridine-3-carboxamide] | < 100 nM | < 100 nM | > 300 nM
Cc1nc(C)c(-c2ccc(F)cc2)c(O)c1C(=O)Nc1ccc(Oc2ccnc3cc(OCc4ccccc4)cnc23)c(F)c1 [Compound 277, 5-(4-Fluorophenyl)-N-[3-fluoro-4-[(7-phenylmethoxy-1,5-naphthyridin-4-yl)oxy]phenyl]-4-hydroxy-2,6-dimethylpyridine-3-carboxamide] | < 100 nM | < 100 nM | 100 to 300 nM
Cc1nc(C)n(-c2ccc(F)cc2)c(=O)c1C(=O)Nc1ccc(Oc2ccnc3cc(OCc4ccccc4)cnc23)c(F)c1 [Compound 278, 1-(4-Fluorophenyl)-N-[3-fluoro-4-[(7-phenylmethoxy-1,5-naphthyridin-4-yl)oxy]phenyl]-2,4-dimethyl-6-oxopyrimidine-5-carboxamide] | < 100 nM | < 100 nM | < 100 nM
COc1cc2nccc(Oc3ccc(NC(=O)c4c(C)cc(C)n(-c5ccc(F)cc5)c4=O)cc3F)c2nc1OC [Compound 279, N-[4-[(6,7-Dimethoxy-1,5-naphthyridin-4-yl)oxy]-3-fluorophenyl]-1-(4-fluorophenyl)-4,6-dimethyl-2-oxopyridine-3-carboxamide] | < 100 nM | < 100 nM | < 100 nM
COc1cnc2c(Oc3ccc(NC(=O)c4c(C)cc(C)n(-c5ccc(F)cc5)c4=O)cc3F)ccnc2c1 [Compound 280, N-[3-Fluoro-4-[(7-methoxy-1,5-naphthyridin-4-yl)oxy]phenyl]-1-(4-fluorophenyl)-4,6-dimethyl-2-oxopyridine-3-carboxamide] | < 100 nM | < 100 nM | < 100 nM
COc1ccc2nccc(Oc3ccc(NC(=O)c4c(C)cc(C)n(-c5ccc(F)cc5)c4=O)cc3F)c2n1 [Compound 281, N-[3-Fluoro-4-[(6-methoxy-1,5-naphthyridin-4-yl)oxy]phenyl]-1-(4-fluorophenyl)-4,6-dimethyl-2-oxopyridine-3-carboxamide] | < 100 nM | < 100 nM | < 100 nM
